Reference: publication PMC8585119, “MATE-Type Proteins Are Responsible for Isoflavone Transportation and Accumulation in Soybean Seeds” (International Journal of Molecular Sciences, 2021)
Changes are numbered by the printed parent chain.

How the values were obtained:
Assay in all cases: yeast uptake assay, UPLC of cell extract versus empty vector
Format in all cases: cell-based
Details in all cases: fed as 200 uM mixture of genistein, daidzein and glycitein; PBS pH 7.4, 30 °C, overnight/24 h; whole yeast cells
[1] = biological target: T1, GmMATE2^W05 (Glycine soja, UniProt A0A191UP89)
T1 construct: gene MATE2; full-length CDS in pGBKT7 without GAL4 BD, ADH1 promoter, in yeast Y2HGold; no tag stated
T1 sequence (A0A191UP89 1-496): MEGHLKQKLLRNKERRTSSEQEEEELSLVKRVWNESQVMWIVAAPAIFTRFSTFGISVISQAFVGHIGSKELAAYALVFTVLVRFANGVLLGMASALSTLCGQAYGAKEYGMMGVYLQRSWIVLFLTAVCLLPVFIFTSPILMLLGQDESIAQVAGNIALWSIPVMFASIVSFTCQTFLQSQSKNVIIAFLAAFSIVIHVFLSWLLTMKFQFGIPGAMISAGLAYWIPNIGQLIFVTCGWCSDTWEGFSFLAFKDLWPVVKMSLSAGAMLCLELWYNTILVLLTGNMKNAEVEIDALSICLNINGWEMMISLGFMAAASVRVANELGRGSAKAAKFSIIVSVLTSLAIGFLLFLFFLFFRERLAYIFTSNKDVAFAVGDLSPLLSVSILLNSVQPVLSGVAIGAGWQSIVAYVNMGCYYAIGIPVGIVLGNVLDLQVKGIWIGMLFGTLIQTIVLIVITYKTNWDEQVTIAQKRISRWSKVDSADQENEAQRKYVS

[2] = biological target: T2, GmMATE1^W05 (Glycine soja, UniProt A0A191UP88)
T2 construct: gene MATE1; full-length CDS in pGBKT7 without GAL4 BD, ADH1 promoter, in yeast Y2HGold; no tag stated
T2 sequence (A0A191UP88 1-495): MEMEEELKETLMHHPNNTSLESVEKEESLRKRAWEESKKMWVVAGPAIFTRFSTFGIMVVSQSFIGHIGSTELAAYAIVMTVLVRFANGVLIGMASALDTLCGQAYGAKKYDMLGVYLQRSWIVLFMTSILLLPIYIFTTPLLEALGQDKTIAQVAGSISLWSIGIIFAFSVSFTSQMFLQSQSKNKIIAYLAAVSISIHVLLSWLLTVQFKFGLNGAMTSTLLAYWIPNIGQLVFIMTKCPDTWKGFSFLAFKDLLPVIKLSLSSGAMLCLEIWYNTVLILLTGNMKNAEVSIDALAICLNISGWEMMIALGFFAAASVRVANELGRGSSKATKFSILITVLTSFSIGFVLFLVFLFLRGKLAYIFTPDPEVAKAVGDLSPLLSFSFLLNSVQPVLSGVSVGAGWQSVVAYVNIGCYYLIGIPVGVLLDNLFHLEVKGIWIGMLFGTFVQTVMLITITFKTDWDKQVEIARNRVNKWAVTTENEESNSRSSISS

[3] = biological target: T3, GmMATE1^C08 (Glycine max, UniProt I1N8G7)
T3 construct: gene LOC100775619; full-length CDS in pGBKT7 without GAL4 BD, ADH1 promoter, in yeast Y2HGold; no tag stated
T3 sequence (I1N8G7 1-495): T2 sequence (A0A191UP88 1-495) with L206V, S330N

[4] = biological target: T4, GmMATE2^C08 (Glycine max, UniProt I1N8G8)
T4 construct: gene LOC100796360; full-length CDS in pGBKT7 without GAL4 BD, ADH1 promoter, in yeast Y2HGold; no tag stated
T4 sequence (I1N8G8 1-496): T1 sequence (A0A191UP89 1-496) with S483N

SMILES | yeast uptake assay, UPLC of cell extract versus empty vector [1] | yeast uptake assay, UPLC of cell extract versus empty vector [2] | yeast uptake assay, UPLC of cell extract versus empty vector [3] | yeast uptake assay, UPLC of cell extract versus empty vector [4]
O=c1c(-c2ccc(O)cc2)coc2cc(O)ccc12 [daidzein] | allelic forms from either the cultivated soybean C08 or the wild soybean W05 exhibited similar | allelic forms from either the cultivated soybean C08 or the wild soybean W05 exhibited similar | yeasts expressing GmMATE1 and GmMATE2 significantly accumulated more of all three metabolites | yeasts expressing GmMATE1 and GmMATE2 significantly accumulated more of all three metabolites
O=c1c(-c2ccc(O)cc2)coc2cc(O)cc(O)c12 [genistein] | allelic forms from either the cultivated soybean C08 or the wild soybean W05 exhibited similar | allelic forms from either the cultivated soybean C08 or the wild soybean W05 exhibited similar | yeasts expressing GmMATE1 and GmMATE2 significantly accumulated more of all three metabolites | yeasts expressing GmMATE1 and GmMATE2 significantly accumulated more of all three metabolites
